Results: PubChem BioAssay AID179 (DTP/NCI, 2004)
The source made the active and inactive calls.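 The calls were made as follows: active = compounds giving half or more protection of infected cells from virus-caused growth loss, again on retest; inactive = the rest.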 *1 amine or outer side, *2 acyl side, *3 side chain or, on linkers, in order; H or OH if unused. Where a SMILES comes first, the peptide text is derived from it. [ ]: non-standard residue; d: D form. X1 = O=C(C1=CN(Cc2ccccc2)C=CC1N[*:1])[*:2]

System: CEM cells HIV-1 protection, formazan growth assay
Assay: NCI AIDS Antiviral Assay
Conditions: for IC50: measured here: growth of uninfected CEM cells
Procedure, shortened: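 Steps: treat uninfected and HIV-1-infected human CEM cells at five drug levels; quantify growth by soluble formazan; retest any compound reaching 50% protection; classify actives from the retest.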

Row | SMILES | EC50 | IC50 | outcome
1 | N#Cc1cccc(/C=C/C(=O)c2ccccc2)c1 | > 22.4 µM | 4.07 µM | 
2 | COc1cccc(C2NC(=O)N3C(c4cccc(OC)c4)NC(=O)N23)c1 (stereo not given) | > 200 µM | 89.1 µM | 
3 | FC(F)(Oc1ccccc1)c1nc2ccccc2o1 | > 200 µM | 64.6 µM | 
4 | Cc1ccc(-n2c(=S)n(-c3ccccc3C)c3nc4ccccc4nc2/c3=N\Nc2ccc(Cl)cc2)cc1 | 117 µM | 123 µM | 
5 | CC1=C(C)C(=O)C2=C(OCCCO2)C1=O | > 1200 µM | 3.39 µM | 
6 | COC(=O)c1c(-c2ccccc2)c2sc3ccccc3n2c1N | > 200 µM | > 200 µM | 
7 | COc1ccccc1N=NC(C(=O)c1ccccc1)C(=O)c1ccccc1 | > 52.5 µM | 0.513 µM | 
8 | C1=Nc2ccc(cc2)N=Cc2ccccc2OCc2cccc(n2)COc2ccccc21 | > 200 µM | > 200 µM | 
9 | CCCN(CCC)C(=O)c1c([N+](=O)[O-])cc(C(F)(F)F)cc1[N+](=O)[O-] |  |  | inactive
10 | Cc1cn(CCCCCOC(=O)NC(CCCN=C(N)N)C(=O)O)c(=O)[nH]c1=O (stereo not given) | > 200 µM | 18.2 µM | 
11 | COc1c(C)c(C/C=C(\C)CCCCO[Si](C(C)C)(C(C)C)C(C)C)c(OC)c2ccccc12 | > 200 µM | 53.7 µM | 
12 | CC(C(=O)COCc1ccccc1)P1(=O)OC(C)(C)CN1C(C)(C)C (stereo not given) | > 200 µM | 132 µM | 
13 | Nc1ccc2ncc(NCc3ccc(F)cc3)nc2c1 | > 135 µM | 69.2 µM | 
14 | Cc1cc(C)nc(NS(=O)(=O)c2ccc(Nc3c4ccc(Cl)cc4nc4c(C(=O)NCCN(C)C)cccc34)cc2)n1 | > 214 µM | 89.1 µM | 
15 | O=C1C2CC3OC3CC2C(=O)N1CCN1C(=O)C2CC3OC3CC2C1=O (stereo not given) | > 10.5 µM | > 10.5 µM | 
16 | NC(=O)c1ncn(C2OC(CO)C(O)C2O)c1NC=O (stereo not given) | > 200 µM | > 200 µM | 
17 | CCSc1sc(=Nc2ccc(N=c3sc(C)c(SC)s3)cc2)sc1-c1ccc(C)cc1 |  |  | inactive
18 | N#Cc1c(N)nc2c(N=Nc3ccccc3)c(N)nn2c1Nc1ccccc1 | > 200 µM | 9.55 µM | 
19 | CC1OC(O[C@H]2C3C=CO[C@@H](OC4OC(CO)C(O)C(O)C4O)C3[C@@]3(COC(=O)/C=C/c4ccccc4)O[C@@H]23)C(O)C(O)C1O (stereo not given in full) | > 200 µM | > 200 µM | 
20 | O=C1CS(=O)(=O)C2(CCCCC2)C(=O)N1 | > 200 µM | > 200 µM | 
21 | C[N+]1([O-])[C@H]2CC(OC(=O)[C@H](CO)c3ccccc3)C[C@H]1[C@H]1O[C@H]12 (stereo not given in full) | > 200 µM | > 200 µM | 

Row | SMILES | EC50 | IC50 | outcome
22 | O=c1n(/N=C/c2ccccc2)c(=O)n2n1C1C=CC2CC1 | > 200 µM | > 200 µM | 
23 | OC1(c2ccccc2)CSc2ncnn21 (stereo not given) | 138 µM | > 200 µM | 
24 | O=C(Cn1c2c(c3ccccc31)CCCC2)N1CCOCC1 | > 200 µM | > 200 µM | 
25 | O=C(/C=C/c1ccc(O)cc1)OC[C@@H](O)COC1OC(CO)C(O)C(O)C1O (stereo not given in full) |  |  | inactive
26 | C[N+](C)(C)CC1CCC(C[N+](C)(C)C)C1=O (stereo not given) |  |  | inactive
27 | COc1ccccc1NC(=O)C(CC(C(=O)Nc1ccccc1OC)/C(C)=N/NC(=O)c1ccccc1O)/C(C)=N/NC(=O)c1ccccc1O (stereo not given) | > 51.3 µM | > 51.3 µM | 
28 | O=C1/C(=C/c2ccccc2)CCc2ccccc21 | > 200 µM | 11.5 µM | 
29 | O=C1Oc2ccccc2C(=O)/C1=C1\SSC(c2ccccc2)=C1c1ccccc1 | > 200 µM | > 200 µM | 
30 | CSC1=C(C#N)C(=O)N(c2ccc(C)cc2)C(=O)C1C#N (stereo not given) | > 200 µM | 151 µM | 
31 | O=C(OCCN1CCCC12CCCCC2)C(c1ccccc1)C1C=CCC1 (stereo not given) | > 200 µM | 24.5 µM | 
32 | COc1ccccc1C(=O)c1c(N2CCCCC2)c(=O)c1=O | 182 µM | > 200 µM | 
33 | O=C1[C@@H]2C3SC(c4ccccc43)[C@@H]2C(=O)N1c1ccccc1 |  |  | inactive
34 | CCCCCCCCC=CCCCCCCCC(=O)O[C@H](COC(=O)CCCCCCC/C=C\CCCCCCCC)COP(=O)(O)OCCNC(=O)CCC(=O)OCCC=C(c1cc(Cl)c(OC)c(C(=O)OC)c1)c1cc(Cl)c(OC)c(C(=O)OC)c1 | > 100 µM | 60.3 µM | 
35 | C[n+]1c(-c2ccc(/C=N/Nc3n[nH]c(=S)n3N/N=C/c3ccc(-c4cn5ccccc5[n+]4C)cc3)cc2)cn2ccccc21 | 18.6 µM | > 200 µM | 
36 | CCN(CC)CCn1ccc(=O)c2cc3c(=O)ccn(CCN(CC)CC)c3c(C)c21 | > 17 µM | 0.676 µM | 
37 | CC1NC(=O)C(C(C)C)NC(=O)C2=CN(Cc3ccccc3)C=CC2NC(=O)C(C)NC(=O)C(C(C)C)NC(=O)C2=CN(Cc3ccccc3)C=CC2NC1=O (stereo not given) (cyclo([X1]VA[X1]VA); configuration not given here) | > 23.4 µM | > 23.4 µM | 
38 | O=C(O)CC(SSCc1ccccc1)C(=O)O (stereo not given) | > 200 µM | > 200 µM | 
39 | Cc1cc2c(cc1C)[n+](=O)c(C(=O)C/C(=N/NC(=O)c1ccccc1O)C(=O)Nc1ccccc1C(C)C)c(C)n2[O-] | > 229 µM | 75.9 µM | 
40 | CCN(CC)C(=O)O/N=C(/C)c1ccccc1 | > 200 µM | > 200 µM | 
41 | CC1(C(=O)O)CCC2(C)CCC3(C)C(=CC(=O)C4C5(C)CCC(OC6OC(C(=O)O)C(O)C(O)C6OC6OC(C(=O)O)C(O)C(O)C6O)C(C)(C)C5CCC43C)C2C1 (stereo not given) | > 302 µM | > 302 µM | 
42 | CC1(C)N([O-])[N+](=O)C1(Br)c1ccccc1 (stereo not given) | > 200 µM | 145 µM | 

Row | SMILES | EC50 | IC50 | outcome
43 | CON(C)c1nc(Cl)nc(Cl)n1 | > 200 µM | > 200 µM | 
44 | CC1(C)CCc2cc3c(cc2O1)OC(C)(C)CC3=O |  |  | inactive
45 | COc1ccc(N2C(=O)C3c4[nH]c5ccc(Br)cc5c4C4CCC(C(C)(C)C)CC4C3C2=O)cc1 (stereo not given) |  |  | inactive
46 | CCOC(=O)C(NC(=O)c1ccccc1)(Nc1ccc(S(=O)(=O)Nc2ccc(OC)nn2)cc1)C(F)(F)F (stereo not given) | > 200 µM | > 200 µM | 
47 | COC(=O)C(Cc1nc2ccc(Cl)cc2[nH]c1=O)C(=O)C(=O)Nc1ccccc1[N+](=O)[O-] (stereo not given) | > 148 µM | > 148 µM | 
48 | S=C(Nc1ccc(N=Nc2ccccc2)cc1)SCc1ccc2c(c1)OCO2 | > 200 µM | 10.7 µM | 
49 | O=C(O)CSc1n[nH]c(-c2ccco2)n1 | > 224 µM | > 224 µM | 
50 | O=[N+]([O-])C1=Cc2cc(Cl)ccc2OC1c1cccc2ccccc12 (stereo not given) | > 2 µM | 0.977 µM | 
51 | COc1ccc(N2C(=O)c3cc(C)cnc3S2(=O)=O)cc1 | 141 µM | > 200 µM | 
52 | CNC(=S)/C(C#N)=C(\N)N1CCN(C)CC1 | > 200 µM | > 200 µM | 
53 | COC[C@@H](N=CC(C)(C)C)C(C)C | > 200 µM | > 200 µM | 
54 | O=c1c(C=Nc2ccc([N+](=O)[O-])cc2)c(O)n(-c2ccccc2)c(=O)n1-c1ccccc1 | > 200 µM | 21.4 µM | 
55 | COC(=O)C(Cc1nc2ccccc2[nH]c1=O)C(=O)C(=O)Nc1ccc([N+](=O)[O-])cc1[N+](=O)[O-] (stereo not given) | > 55 µM | 25.7 µM | 
56 | COC(=O)c1ccccc1C1CN=NC12Cc1c(C)cc(C)cc1C2=O (stereo not given) | > 174 µM | 28.2 µM | 
57 | O=C(CC(C(=O)c1ccsc1)c1cccs1)c1ccsc1 (stereo not given) | > 200 µM | 15.5 µM | 
58 | CCOc1ccc2nc(NC(=O)c3c/c(=N\NC(=O)C[N+](C)(C)C)c4ccc(O)cc4o3)sc2c1 | > 178 µM | 2.24 µM | 
59 | NC(=O)C(=CN1C(=O)/C(=C/c2ccccc2O)SC1=S)C(N)=O | > 200 µM | 123 µM | 
60 | Cc1ccc(C)c(NC(=O)CC/C(=N\NC(=O)c2c(O)ccc3ccccc23)C(C)C(=O)c2ccc(O)cc2)c1 (stereo not given) | > 27.5 µM | 14.5 µM | 
61 | COc1ccc(-c2c(C3=NCCCN3)nnn2-c2ccc(Cl)cc2)cc1 | 14.1 µM | 85.1 µM | 
62 | Nc1ccc2c(O)cc(=O)[nH]c2n1 | > 200 µM | > 200 µM | 
63 | CC(=O)C1(O)CC2(c3ccccc3)C(=O)C1(c1ccccc1)C(c1ccccc1)=C2c1ccccc1 (stereo not given) |  |  | inactive

Row | SMILES | EC50 | IC50 | outcome
64 | C(=C\P(c1ccccc1)c1ccccc1)/P(/C=C/P(c1ccccc1)c1ccccc1)c1ccccc1 | > 4.9 µM | > 4.9 µM | 
65 | COc1cc2c(cc1OC)C1OC(c3cc(OC)c(OC)cc3C1OC(C)=O)C2OC(C)=O (stereo not given) | > 50.1 µM | > 50.1 µM | 
66 | COc1cc2c3c(c1OC)-c1ccccc1C(C(OC(C)=O)c1ccccc1)C3N(C)CC2 (stereo not given) |  |  | inactive
67 | O=C(CC1(O)C(=O)Nc2c(Cl)cc(Cl)cc21)c1ccc(F)cc1 (stereo not given) | > 28.2 µM | > 28.2 µM | 
68 | C=C1C(=O)[C@@]23C(O)C[C@@H]4C(C)(C)CCC(O)C4(COC(C)=O)[C@@H]2CC[C@@H]1[C@H]3O (stereo not given in full) | > 631 µM | 0.372 µM | 
69 | O=c1nc(NC2CCCCO2)ccn1CCO (stereo not given) | > 1050 µM | > 1050 µM | 
70 | Cc1cccc2c1c1ccc3c(c1n2C)C(=O)C=CC3=O | > 18.2 µM | 9.77 µM | 
71 | CN1CCn2c(Br)ccc2C1=O | > 1100 µM | 64.6 µM | 
72 | O=C(CCCN1CCC2(CC1)CC(=O)N(N1CCOCC1)C2=O)c1ccccc1 | > 200 µM | > 200 µM | 
73 | Cc1sc2c(c1C)c(=O)[nH]c1c(C#N)c(-c3ccc(Cl)cc3)cn12 | 186 µM | > 200 µM | 
74 | CN(C)C(=O)CC(C(=O)O)c1c[nH]c2ccccc12 (stereo not given) | > 309 µM | > 309 µM | 
75 | CC(=O)OCC(=O)OC[C@H](OCc1ccccc1)[C@@H]1[C@H](OC(C)=O)C(=O)N1Cc1ccccc1 | > 200 µM | 145 µM | 
76 | CC(C)NCCCNc1c2ccccc2nc2cccc([N+](=O)[O-])c12 | > 0.2 µM | 0.0316 µM | 
77 | COc1ccccc1N/N=c1\c2nc3ccccc3nc1n(-c1ccccc1C)c(=S)n2-c1ccc(Cl)cc1 | > 200 µM | 178 µM | 
78 | Cc1cn(C2CC(C)N(CCO)O2)c(=O)[nH]c1=O (stereo not given) | > 200 µM | > 200 µM | 
79 | CC(C)(C)c1cc2c(c(C(C)(C)C)c1)OC(C1Nc3cc(C(C)(C)C)cc(C(C)(C)C)c3O1)N2 (stereo not given) | > 100 µM | 21.4 µM | 
80 | COc1cc(N(CCC#N)CCC#N)ccc1/C=C1\SC(=S)NC1=O | > 200 µM | > 200 µM | 
81 | O=C1c2ccccc2-c2ccc3c4ccc5c6c(ccc(c7ccc1c2c73)c64)-c1ccccc1C5=O | > 200 µM | > 200 µM | 
82 | CN(N)c1cnn(-c2ccccc2)c(=O)c1Cl | > 200 µM | > 200 µM | 
